These molecules were tested on hypoxia-inducible endogenous VEGF expression (assay: Assay to evaluate effect on hypoxia-inducible endogenous VEGF expression (VEGF ELISA, HeLa cells)). Conditions: HeLa cells cultured 24-48 hours under hypoxic conditions (1% O2, 5% CO2); VEGF in conditioned media by ELISA; read-out: ELISA EC50 (effective concentration required to lower the amount of VEGF translation by 50%).
Format: cell-based
Method: Assay to Evaluate Effect on Hypoxia-Inducible Endogenous VEGF Expression
The ability of the compounds of the invention to modulate hypoxia-inducible endogenous VEGF expression is analyzed as follows. VEGF protein levels are monitored by an ELISA assay (R&D Systems). Briefly, HeLa cells are cultured for 24-48 hours under hypoxic conditions (1% O2, 5% CO2, balanced with nitrogen) in the presence or absence of a compound of the invention. The conditioned media is then assayed by ELISA, and the concentration of VEGF is calculated from the standard ELISA curve of each assay.
A dose-response analysis is performed using the ELISA assay and conditions described above. A series of, e.g., seven different concentrations are analyzed. In parallel, a dose-response cytotoxicity assay is performed using Cell Titer Glo (Promega) under the same conditions as the ELISA to ensure that the inhibition of VEGF expression is not due to the cytotoxicity. Dose-response curves are plotted using percentage inhibition versus concentration of the compound, and EC50 and CC50 values are generated for each compound with the maximal inhibition set as 100% and the minimal inhibition as 0%.
The most preferred compounds of the invention are those with μM values of 3 or less.

SMILES	EC50 [µM]
O=C(Oc1ccccc1Br)N1CCc2ccccc21 [2,3-Dihydro-indole-1-carboxylic acid 2-bromo-phenyl ester]	> 30
Cc1ccc2cc(OC(=O)N3CC(C)CC(C)C3)ccc2n1 (stereo not shown) [3,5-Dimethyl-piperidine-1-carboxylic acid 2-methyl-quinolin-6-yl ester]	> 30
CC1CC(C)CN(C(=O)Oc2ccccc2Br)C1 (stereo not shown) [3,5-Dimethyl-piperidine-1-carboxylic acid 2-bromo-phenyl ester]	> 30
O=C(Oc1ccccc1Br)N1CCCC1 [Pyrrolidine-1-carboxylic acid 2-bromo-phenyl ester]	> 30
Cc1ccc(OC(=O)N2CCCCC2C)c(Br)c1 (stereo not shown) [2-Methyl-piperidine-1-carboxylic acid 2-bromo-4-methyl-phenyl ester]	> 30
Cc1ccc(OC(=O)N2C(C)CCCC2C)c(Br)c1 (stereo not shown) [2,6-Dimethyl-piperidine-1-carboxylic acid 2-bromo-4-methyl-phenyl ester]	> 30

Same assay, conditions: Homo sapiens, HeLa, read-out: ELISA EC50 (effective concentration required to lower the amount of VEGF translation by 50%)

SMILES	EC50 [µM]
CC1CCCCN1C(=O)Oc1ccccc1Br (stereo not shown) [2-Methyl-piperidine-1-carboxylic acid 2-bromo-phenyl ester]	> 30
Cc1ccc(OC(=O)N2CCc3ccccc32)c(Br)c1 [2,3-Dihydro-indole-1-carboxylic acid 2-bromo-4-methyl-phenyl ester]	> 30
CN1CCN(C(=O)Oc2cc3ccccc3cn2)CC1 [4-Methyl-piperazine-1-carboxylic acid isoquinolin-3-yl ester]	> 30
CN1CCN(C(=O)Oc2c(Cl)cc(Cl)cc2Cl)CC1 [4-Methyl-piperazine-1-carboxylic acid 2,4,6-trichloro-phenyl ester]	14.2
Cc1ccc2cc(OC(=O)N3CCCCC3C)ccc2n1 (stereo not shown) [2-Methyl-piperidine-1-carboxylic acid 2-methyl-quinolin-6-yl ester]	> 30
CC1CCN(C(=O)Oc2ccccc2Br)CC1 [4-Methyl-piperidine-1-carboxylic acid 2-bromo-phenyl ester]	> 30
CN(C(=O)Oc1ccc2ccccc2c1)c1ccccc1 [Methyl-phenyl-carbamic acid naphthalen-2-yl ester]	> 10

Same assay, conditions: Homo sapiens; HeLa cells cultured 24-48 hours under hypoxic conditions (1% O2, 5% CO2); VEGF in conditioned media by ELISA; read-out: ELISA EC50 (effective concentration required to lower the amount of VEGF translation by 50%)

SMILES	EC50 [µM]
O=C(Nc1ccc2ccccc2c1)N1CCC(Cc2ccccc2)CC1 [4-Benzyl-piperidine-1-carboxylic acid naphthalen-2-ylamide]	4.39
CC(=O)c1c(OC(=O)N2CCc3cccnc32)ccc2ccccc12 [2,3-Dihydro-pyrrolo[2,3-b]pyridine-1-carboxylic acid 1-acetyl-naphthalen-2-yl ester]	> 30
CC1CCCCN1C(=O)Oc1cc2ccccc2cn1 (stereo not shown) [2-Methyl-piperidine-1-carboxylic acid isoquinolin-3-yl ester]	> 30
CCc1cccc(NC(=O)Oc2ccc3ccccc3c2)c1 [(3-Ethyl-phenyl)-carbamic acid naphthalen-2-yl ester]	> 30
O=C(Oc1c(Cl)cc(Cl)cc1Cl)N1CCC(Cc2ccccc2)CC1 [4-Benzyl-piperidine-1-carboxylic acid 2,4,6-trichloro-phenyl ester]	3.72
COc1ccc2ccc(OC(=O)N3CCN(c4ccccc4)CC3)c(Br)c2c1 [4-Phenyl-piperazine-1-carboxylic acid 1-bromo-7-methoxy-naphthalen-2-yl ester]	> 10
COc1ccc2ccc(OC(=O)N3CCN(c4ccc(Cl)cc4)CC3)c(Br)c2c1 [4-(4-Chloro-phenyl)-piperazine-1-carboxylic acid 1-bromo-7-methoxy-naphthalen-2-yl ester]	> 10
O=C(Oc1ccc2ccccc2c1Br)N1CCC(Cc2ccccc2)CC1 [4-Benzyl-piperidine-1-carboxylic acid 1-bromo-naphthalen-2-yl ester]	0.259
O=C(Oc1cc2ccccc2cn1)N1CCC(Cc2ccccc2)CC1 [4-Benzyl-piperidine-1-carboxylic acid isoquinolin-3-yl ester]	> 30
O=C(Oc1ccc2ccccc2c1Br)N1CCC(C(O)(c2ccccc2)c2ccccc2)CC1 [4-(Hydroxy-diphenyl-methyl)-piperidine-1-carboxylic acid 1-bromo-naphthalen-2-yl ester]	0.0202
CCC(NC(=O)Oc1ccc2ccccc2c1)(C(F)(F)F)C(F)(F)F [(1,1-Bis-trifluoromethyl-propyl)-carbamic acid naphthalen-2-yl ester]	> 30
Cc1ccc(OC(=O)N2CCC(Cc3ccccc3)CC2)c(Br)c1 [4-Benzyl-piperidine-1-carboxylic acid 2-bromo-4-methyl-phenyl ester]	> 30
CC1CCN(C(=O)Oc2c(Cl)cc(Cl)cc2Cl)CC1 [4-Methyl-piperidine-1-carboxylic acid 2,4,6-trichloro-phenyl ester]	> 30
O=C(Oc1cc(Cl)c(Cl)cc1Cl)N1CCc2ccccc21 [2,3-Dihydro-indole-1-carboxylic acid 2,4,5-trichloro-phenyl ester]	> 30
Cc1ccc2cc(OC(=O)N3CCC(Cc4ccccc4)CC3)ccc2n1 [4-Benzyl-piperidine-1-carboxylic acid 2-methyl-quinolin-6-yl ester]	> 30
CC1CC(C)CN(C(=O)Oc2c(Cl)cc(Cl)cc2Cl)C1 (stereo not shown) [3,5-Dimethyl-piperidine-1-carboxylic acid 2,4,6-trichloro-phenyl ester]	> 30
CC1CC(C)CN(C(=O)Nc2ccc3ccccc3c2)C1 (stereo not shown) [3,5-Dimethyl-piperidine-1-carboxylic acid naphthalen-2-ylamide]	> 10
O=C(Oc1c(Cl)cc(Cl)cc1Cl)N1CCc2ccccc21 [2,3-Dihydro-indole-1-carboxylic acid 2,4,6-trichloro-phenyl ester]	> 30

SMILES	EC50 [µM]
O=C(Oc1ccc2cc(Br)ccc2c1)N1CCCCC1 [Piperidine-1-carboxylic acid 6-bromo-naphthalen-2-yl ester]	> 10
O=C(Oc1c(Cl)cc(Cl)cc1Cl)N1CCN(c2ccccc2)CC1 [4-Phenyl-piperazine-1-carboxylic acid 2,4,6-trichloro-phenyl ester]	5.78
CS(=O)(=O)Nc1c(OC(=O)N2CCCCC2)ccc2ccccc12 [Piperidine-1-carboxylic acid 1-methanesulfonylamino-naphthalen-2-yl ester]	> 5
O=C(Nc1ccc2ccccc2c1Br)N1CCC(C(O)(c2ccccc2)c2ccccc2)CC1 [4-(Hydroxy-diphenyl-methyl)-piperidine-1-carboxylic acid (1-bromo-naphthalen-2-yl)-amide]	0.22
O=C(Oc1cc2ccccc2cn1)N1CCCC1 [Pyrrolidine-1-carboxylic acid isoquinolin-3-yl ester]	> 30
O=C(Nc1ccc2ccccc2c1Br)N1CCN(c2ccccc2)CC1 [4-Phenyl-piperazine-1-carboxylic acid (1-bromo-naphthalen-2-yl)-amide]	> 10
O=C(Oc1cc(Cl)c(Cl)cc1Cl)N1CCCc2ccccc21 [3,4-Dihydro-2H-quinoline-1-carboxylic acid 2,4,5-trichloro-phenyl ester]	11.2
CC1CCCC(C)N1C(=O)Oc1c(Cl)cc(Cl)cc1Cl (stereo not shown) [2,6-Dimethyl-piperidine-1-carboxylic acid 2,4,6-trichloro-phenyl ester]	> 30
O=C(Oc1cc(Cl)c(Cl)cc1Cl)N1CCc2ccccc2C1 [3,4-Dihydro-1H-isoquinoline-2-carboxylic acid 2,4,5-trichloro-phenyl ester]	18.7
O=C(Oc1cc2ccccc2cn1)N1CCCCC1 [Piperidine-1-carboxylic acid isoquinolin-3-yl ester]	> 30
CS(=O)(=O)Nc1c(OC(=O)N2CCC(Cc3ccccc3)CC2)ccc2ccccc12 [4-Benzyl-piperidine-1-carboxylic acid 1-methanesulfonylamino-naphthalen-2-yl ester]	> 5
CC(=O)c1c(OC(=O)N2CCC(Cc3ccccc3)CC2)ccc2ccccc12 [4-Benzyl-piperidine-1-carboxylic acid 1-acetyl-naphthalen-2-yl ester]	2.6
Cc1ccc2cc(OC(=O)N3CCc4ccccc4C3)ccc2n1 [3,4-Dihydro-1H-isoquinoline-2-carboxylic acid 2-methyl-quinolin-6-yl ester]	> 30
CC(=O)c1c(OC(=O)N2CCCCC2C)ccc2ccccc12 (stereo not shown) [2-Methyl-piperidine-1-carboxylic acid 1-acetyl-naphthalen-2-yl ester]	> 30
CC1CC(C)CN(C(=O)Nc2ccc3ccccc3c2Cl)C1 (stereo not shown) [3,5-Dimethyl-piperidine-1-carboxylic acid (1-chloro-naphthalen-2-yl)-amide]	> 10
CC1CCCC(C)N1C(=O)Oc1cc2ccccc2cn1 (stereo not shown) [2,6-Dimethyl-piperidine-1-carboxylic acid isoquinolin-3-yl ester]	> 30
O=C(Oc1ccccc1Br)N1CCCCC1 [Piperidine-1-carboxylic acid 2-bromo-phenyl ester]	> 30
O=C(Oc1cc2ccccc2cn1)N1CCc2ccccc2C1 [3,4-Dihydro-1H-isoquinoline-2-carboxylic acid isoquinolin-3-yl ester]	> 30
